The source of these data is PubChem BioAssay AID330 (DTP/NCI, 2004).

Values joined by “and” are separate entries in the source; they are usually repeats but may differ in a detail not shown here. Equal values may be shown once. Inconclusive results and toxic doses are left out. Square brackets hold non-standard residues; d marks the D form. Peptide text beside a SMILES is read from it. * marks the point of attachment. ξ: configuration not given here. Cbz = O=C(OCc1ccccc1)*; ξNva = CCCC(N)C(=O)O

The test relates to P388 leukemia ip, CD2F1 mice, survival T/C. The test can be described thus: NCI In Vivo Anticancer Drug Screen. Data for tumor model P388 Leukemia (intraperitoneal) in CD2F1 (CDF1) mice. The following applies: endpoint: median survival time, higher = longer survival. The procedure, abridged: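 Mice carrying the transplanted tumor received test compound or vehicle. Survival was recorded in each group, and the value is the treated-group measurement divided by that of the vehicle-treated control group.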

[1] abbreviates: dose: 50.0 mg/kg/injection, schedule: Q01DX009 (ip), vehicle: Klucel (hydroxypropylcellulose) (HPC).
The mark [2] stands for this setting: dose: 100.0 mg/kg/injection, schedule: Q01DX009 (ip), vehicle: Klucel (hydroxypropylcellulose) (HPC).
Where [3] appears, read: dose: 50.0 mg/kg/injection, schedule: Q01DX009 (ip), vehicle: saline.
Where [4] appears, read: dose: 100.0 mg/kg/injection, schedule: Q01DX009 (ip), vehicle: saline.
Setting [5] is: dose: 200.0 mg/kg/injection, schedule: Q01DX009 (ip), vehicle: saline.
[6] abbreviates: dose: 50.0 mg/kg/injection, schedule: Q01DX009 (ip), vehicle: saline with Tween-80.
Setting [7] is: dose: 200.0 mg/kg/injection, schedule: Q01DX009 (ip), vehicle: Klucel (hydroxypropylcellulose) (HPC).
Where [8] appears, read: dose: 50.0 mg/kg/injection, schedule: Q01DX005 (ip), vehicle: Klucel (hydroxypropylcellulose) (HPC).
The mark [9] stands for this setting: dose: 100.0 mg/kg/injection, schedule: Q01DX005 (ip), vehicle: Klucel (hydroxypropylcellulose) (HPC).
Setting [10] is: dose: 60.0 mg/kg/injection, schedule: Q01DX005 (ip), vehicle: Klucel (hydroxypropylcellulose) (HPC).
The mark [11] stands for this setting: dose: 120.0 mg/kg/injection, schedule: Q01DX005 (ip), vehicle: Klucel (hydroxypropylcellulose) (HPC).
Where [12] appears, read: dose: 240.0 mg/kg/injection, schedule: Q01DX005 (ip), vehicle: Klucel (hydroxypropylcellulose) (HPC).

Regarding `C=CC(C)(C)n1cc(C2=C(O)C(=O)C(c3cn(C(C)(C)C=C)c4ccccc34)=C(O)C2=O)c2ccccc21`, the T/C is, setting by setting: (dose: 2.5 mg/kg/injection, schedule: Q01DX009 (ip), vehicle: carboxymethylcellulose (CMC)) 101 % of control; (dose: 5.0 mg/kg/injection, schedule: Q01DX009 (ip), vehicle: carboxymethylcellulose (CMC)) 103 % of control and 88 % of control; (dose: 6.25 mg/kg/injection, schedule: Q01DX009 (ip), vehicle: Klucel (hydroxypropylcellulose) (HPC)) 99 % of control; (dose: 10.0 mg/kg/injection, schedule: Q01DX009 (ip), vehicle: carboxymethylcellulose (CMC)) 108 % of control and 93 % of control; (dose: 12.5 mg/kg/injection, schedule: Q01DX009 (ip), vehicle: Klucel (hydroxypropylcellulose) (HPC)) 100 % of control; (dose: 18.0 mg/kg/injection, schedule: Q01DX009 (ip), vehicle: Klucel (hydroxypropylcellulose) (HPC)) 95 % of control. In addition, the T/C is, setting by setting: (dose: 20.0 mg/kg/injection, schedule: Q01DX009 (ip), vehicle: carboxymethylcellulose (CMC)) 120 % of control and 90 % of control; (dose: 25.0 mg/kg/injection, schedule: Q01DX009 (ip), vehicle: Klucel (hydroxypropylcellulose) (HPC)) 99 % of control; (dose: 26.0 mg/kg/injection, schedule: Q01DX009 (ip), vehicle: Klucel (hydroxypropylcellulose) (HPC)) 104 % of control; (dose: 40.0 mg/kg/injection, schedule: Q01DX009 (ip), vehicle: Klucel (hydroxypropylcellulose) (HPC)) 90 % of control; (dose: 40.0 mg/kg/injection, schedule: Q01DX009 (ip), vehicle: carboxymethylcellulose (CMC)) 114 % of control; under setting [1], 100 % of control. Besides, the T/C under setting [2] was 113 % of control.
Consider `COc1ccccc1N=Nc1cc(S(=O)(=O)O)c2ccccc2c1O`, for which the T/C is, setting by setting: (dose: 25.0 mg/kg/injection, schedule: Q01DX009 (ip), vehicle: saline) 89 % of control; under setting [3], 97 % of control; under setting [4], 100 % of control and 117 % of control; under setting [5], 91 % of control.
`Cc1ccc2cccc(OC(=O)c3cccnc3Oc3ccccc3)c2n1`: the T/C runs as follows: under setting [6], 91 % of control; (dose: 100.0 mg/kg/injection, schedule: Q01DX009 (ip), vehicle: saline with Tween-80) 90 % of control; (dose: 200.0 mg/kg/injection, schedule: Q01DX009 (ip), vehicle: saline with Tween-80) 90 % of control.
For `CC(=O)OC1(c2nccc3ccccc23)CCN(Cc2ccccc2)CC1`, the T/C under setting [1] was 106 % of control, the T/C under setting [2] was 106 % of control and the T/C under setting [7] is 102 % of control.
Consider `CNC1c2ccccc2CCC1O` (stereo not given), for which the T/C reads like this: (dose: 100.0 mg/kg/injection, schedule: Q04DX002 (ip), vehicle: Klucel (hydroxypropylcellulose) (HPC)) 100 % of control; (dose: 200.0 mg/kg/injection, schedule: Q04DX002 (ip), vehicle: Klucel (hydroxypropylcellulose) (HPC)) 96 % of control.
For the compound `O=C1OC(C(O)CO)C(O)=C1OC[N+]1(CCCl)CCN(CCCl)CC1` (stereo not given), the T/C runs as follows: under setting [3], 100 % of control and 110 % of control; under setting [4], 108 % of control and 116 % of control; under setting [5], 123 % of control; (dose: 400.0 mg/kg/injection, schedule: Q01DX009 (ip), vehicle: saline) 157 % of control.
Regarding `COc1ccc2cc3cccc[n+]3cc2c1`, the T/C is 100 % of control (dose: 0.19 mg/kg/injection, schedule: Q01DX005 (ip), vehicle: Klucel (hydroxypropylcellulose) (HPC)); 110 % of control (dose: 0.39 mg/kg/injection, schedule: Q01DX005 (ip), vehicle: Klucel (hydroxypropylcellulose) (HPC)); 108 % of control and 97 % of control (dose: 0.78 mg/kg/injection, schedule: Q01DX005 (ip), vehicle: Klucel (hydroxypropylcellulose) (HPC)).
For the compound `COc1ccc2[nH]cc(/C=C(/C)c3ccncc3)c2c1`, the T/C is 102 % of control (dose: 100.0 mg/kg/injection, schedule: Q01DX001 (ip), vehicle: saline with Tween-80); 108 % of control (dose: 200.0 mg/kg/injection, schedule: Q01DX001 (ip), vehicle: saline with Tween-80); 108 % of control (dose: 400.0 mg/kg/injection, schedule: Q01DX001 (ip), vehicle: saline with Tween-80).
In the case of `CC(=O)Cc1cc(-c2cc(CC(C)=O)on2)no1`, the T/C is 103 % of control (dose: 60.0 mg/kg/injection, schedule: Q01DX005 (ip), vehicle: saline); 99 % of control (dose: 120.0 mg/kg/injection, schedule: Q01DX005 (ip), vehicle: saline); 100 % of control (dose: 240.0 mg/kg/injection, schedule: Q01DX005 (ip), vehicle: saline).
Take `CCCCC/C=C/CCCCCCC1C=CCC1` (stereo not given): the T/C is, setting by setting: (dose: 100.0 mg/kg/injection, schedule: Q01DX001 (ip), vehicle: saline) 101 % of control; (dose: 200.0 mg/kg/injection, schedule: Q01DX001 (ip), vehicle: saline) 100 % of control; (dose: 400.0 mg/kg/injection, schedule: Q01DX001 (ip), vehicle: saline) 100 % of control.
Regarding `O=C1c2ccccc2S(=O)(=O)N1CCN(CCN1C(=O)c2ccccc2S1(=O)=O)c1ccccc1`, the T/C by setting is: under setting [1], 92 % of control; under setting [2], 100 % of control; under setting [7], 100 % of control.
Take `C[n+]1c(/C=C/c2ccccc2Cl)ccc2ccccc21`: the T/C by setting is: (dose: 12.5 mg/kg/injection, schedule: Q01DX009 (ip), vehicle: saline with Tween-80) 94 % of control; (dose: 25.0 mg/kg/injection, schedule: Q01DX009 (ip), vehicle: saline with Tween-80) 100 % of control; under setting [6], 94 % of control.
Regarding `CCCC(NC(=O)OCc1ccccc1)C(=O)NCC(=O)NCC(=O)OC` (stereo not drawn) (Cbz-[ξNva]-Gly-Gly-OMe), the T/C is 110 % of control under setting [8]; 113 % of control under setting [9]; 113 % of control (dose: 200.0 mg/kg/injection, schedule: Q01DX005 (ip), vehicle: Klucel (hydroxypropylcellulose) (HPC)).
In the case of `Fc1cccc2c(SCCCCCCSc3c4ccccc4nc4c(F)cccc34)c3ccccc3nc12`, the T/C runs as follows: under setting [10], 89 % of control; under setting [11], 89 % of control; under setting [12], 90 % of control.
Consider `C/C(=N\N=C(N)N)c1cnc(N)nc1C`, for which the T/C under setting [10] was 98 % of control, the T/C under setting [11] is 97 % of control and the T/C under setting [12] was 100 % of control.
Turning to `COc1cccc(/C=N/Nc2cc(C)nc3cc4c(cc23)OCO4)c1`, the T/C reads like this: (dose: 6.25 mg/kg/injection, schedule: Q01DX005 (ip), vehicle: Klucel (hydroxypropylcellulose) (HPC)) 104 % of control; (dose: 12.5 mg/kg/injection, schedule: Q01DX005 (ip), vehicle: Klucel (hydroxypropylcellulose) (HPC)) 97 % of control; (dose: 25.0 mg/kg/injection, schedule: Q01DX005 (ip), vehicle: Klucel (hydroxypropylcellulose) (HPC)) 100 % of control and 87 % of control; under setting [8], 100 % of control and 102 % of control and 96 % of control; under setting [9], 95 % of control.
For the compound `O=C(c1ccc(Cl)cc1)n1c(Cl)c(/C=N\Nc2ccc([N+](=O)[O-])cc2[N+](=O)[O-])c2ccccc21`, the T/C was 92 % of control (dose: 12.5 mg/kg/injection, schedule: Q01DX001 (ip), vehicle: Klucel (hydroxypropylcellulose) (HPC)); 96 % of control (dose: 25.0 mg/kg/injection, schedule: Q01DX001 (ip), vehicle: Klucel (hydroxypropylcellulose) (HPC)); 88 % of control (dose: 50.0 mg/kg/injection, schedule: Q01DX001 (ip), vehicle: Klucel (hydroxypropylcellulose) (HPC)).
Turning to `Nc1ccccc1Cl`, the T/C is, setting by setting: (dose: 31.25 mg/kg/injection, schedule: Q01DX009 (ip), vehicle: saline with Tween-80) 95 % of control; (dose: 62.5 mg/kg/injection, schedule: Q01DX009 (ip), vehicle: saline with Tween-80) 109 % of control; (dose: 125.0 mg/kg/injection, schedule: Q01DX009 (ip), vehicle: saline with Tween-80) 100 % of control.
Regarding `CSC1=Nc2cccnc2Nc2cscc21`, the T/C is 102 % of control (dose: 15.0 mg/kg/injection, schedule: Q01DX005 (ip), vehicle: saline with Tween-80); 98 % of control (dose: 30.0 mg/kg/injection, schedule: Q01DX005 (ip), vehicle: saline with Tween-80); 112 % of control and 94 % of control (dose: 60.0 mg/kg/injection, schedule: Q01DX005 (ip), vehicle: saline with Tween-80).
